Experimental data published in patent US11066392B2, “Inhibitors of indoleamine 2,3-dioxygenase and methods of their use” (BRISTOL-MYERS SQUIBB COMPANY, priority 2017, dated 2021).
Like-named read-outs stand apart in the source and are kept apart here.

Biological target: indoleamine 2,3-dioxygenase (IDO) (Homo sapiens, UniProt P14902)
Assay: HeLa cell-based indoleamine 2,3-dioxygenase (IDO) assay (kynurenine production, IFNγ-stimulated)
Settings: HeLa cells
Procedure: Assessment of inhibitor activity in HeLa cell-based indoleamine 2,3-dioxygenase (IDO) assay. HeLa (ATCC® CCL-2) cells were obtained from the ATCC® and cultured in Dulbecco's Modified Eagle Medium supplemented with 4.5 g/L glucose, 4.5 […] sodium pyruvate (#10-013-CV, Corning), 2 mM L-alanyl-L-glutamine dipeptide (#35050-061, Gibco), 100U/mL penicillin, 100 μg/mL streptomycin (#SV30010, HyClone) and 10% fetal bovine serum (#SH30071.03 HyClone). Cells were maintained in a humidified incubator at 37° C. in 5% CO2. […] After 24 hours, the media was aspirated and replaced with media containing IFNγ (#285-IF/CF, R&D Systems) at a final concentration of 25 ng/mL. A serial dilution of each test compound was added to the cells in a total volume of 200 μL of culture medium. After a further 48 hour incubation, 170 μL of supernatant was transferred from each well to a fresh 96-well plate. 12.1 μL of 6.1N trichloroacetic acid (#T0699, Sigma-Aldrich) was added to each well and mixed, followed by incubation at 65° C. for 20 minutes to hydrolyze N-formylkynurenine, the product of indoleamine 2,3-dioxygenase, to kynurenine. The reaction mixture was then centrifuged for 10 mins at 500×g to sediment the precipitate. 100 μL of the supernatant was transferred from each well to a fresh 96-well plate. 100 μl of 2% (w/v) p-dimethylaminobenzaldehyde (#15647-7, Sigma-Aldrich) in acetic acid (#A6283, Sigma-Aldrich) was added to each well mixed and incubated at room temperature for 20 mins. Kynurenine concentrations were determined by measuring absorbance at 480 nm and calibrating against an L-kynurenine (#K8625, Sigma-Aldrich) standard curve using a SPECTRAMAX® M2e microplate reader (Molecular Devices). The percentage activity at each inhibitor concentration was determined and IC50 values assessed using nonlinear regression. Activity for compounds described herein is provided in Table 1, wherein potency levels are provided as follows: (Potency: IDO IC50: […])

[1] = IFNγ 25 ng/mL, 48 hour incubation, read-out: IDO Hela IC50
[2] = potency class, read-out: Patent Potency Hela IC50 A < 10 nM, B > 10 nM, C > 100 nM

Sequence of indoleamine 2,3-dioxygenase (IDO) (P14902 whole entry): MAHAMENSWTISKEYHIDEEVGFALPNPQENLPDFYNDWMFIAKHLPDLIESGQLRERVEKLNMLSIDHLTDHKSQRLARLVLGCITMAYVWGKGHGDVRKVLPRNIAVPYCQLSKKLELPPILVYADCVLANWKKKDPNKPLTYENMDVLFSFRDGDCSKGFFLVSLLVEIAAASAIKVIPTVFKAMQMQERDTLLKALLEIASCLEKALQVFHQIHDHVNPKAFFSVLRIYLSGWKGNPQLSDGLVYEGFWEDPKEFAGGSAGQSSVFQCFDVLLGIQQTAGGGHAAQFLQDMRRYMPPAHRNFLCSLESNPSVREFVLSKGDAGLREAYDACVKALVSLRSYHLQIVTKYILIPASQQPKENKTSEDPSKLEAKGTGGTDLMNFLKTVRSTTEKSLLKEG

| SMILES | IC50 [1] | IC50 [2] |
| --- | --- | --- |
| CC[C@@H](NC(=O)c1ccc(OC)nc1)[C@H]1CC[C@@H](c2cnc3ccccc3c2)CC1 (single isomer, unassigned) [Example 20a, 6-Methoxy-N-(1-(4-(quinolin-3-yl)cyclohexyl)propyl)nicotinamide] | 250 nM | – |
| CC[C@@H](NC(=O)c1ccc(OC)nc1)[C@H]1CC[C@@H](c2cnc3ccccc3c2)CC1 (single isomer, unassigned) [Example 20b, 6-Methoxy-N-(1-(4-(quinolin-3-yl)cyclohexyl)propyl)nicotinamide] | – | > 100 nM |
| CC[C@@H](NC(=O)c1ccc(OC)nc1)[C@H]1CC[C@@H](c2cnc3ccccc3c2)CC1 (single isomer, unassigned) [Example 20c, 6-Methoxy-N-(1-(4-(quinolin-3-yl)cyclohexyl)propyl)nicotinamide] | 240 nM | – |
| CC[C@@H](NC(=O)c1ccc(OC)nc1)[C@H]1CC[C@@H](c2cnc3ccccc3c2)CC1 (single isomer, unassigned) [Example 20d, 6-Methoxy-N-(1-(4-(quinolin-3-yl)cyclohexyl)propyl)nicotinamide] | 60 nM | – |
| CC[C@@H](NC(=O)c1cnc(OC)nc1)[C@H]1CC[C@@H](c2ccnc(OC)c2F)CC1 (single isomer, unassigned) [Example 21c, N-(1-(4-(3-Fluoro-2-methoxypyridin-4-yl)cyclohexyl)propyl)-2-methoxypyrimidine-5-carboxamide] | – | > 100 nM |
| CC[C@@H](NC(=O)c1cnc(OC)nc1)[C@H]1CC[C@@H](c2ccnc(OC)c2F)CC1 (single isomer, unassigned) [Example 21d, N-(1-(4-(3-Fluoro-2-methoxypyridin-4-yl)cyclohexyl)propyl)-2-methoxypyrimidine-5-carboxamide] | 380 nM | – |
| CCC(NC(=O)c1ccc(OC)nc1)C1CCC(c2ccnc(OC)c2C(F)F)CC1 (single isomer, unassigned) [Example 24a, N-(1-((1s,4s)-4-(3-(Difluoromethyl)-2-methoxypyridin-4-yl)cyclohexyl)propyl)-6-methoxynicotinamide] | – | < 10 nM |
| CCC(NC(=O)c1ccc(OC)nc1)C1CCC(c2ccnc(OC)c2C(F)F)CC1 (single isomer, unassigned) [Example 24b, N-(1-((1s,4s)-4-(3-(Difluoromethyl)-2-methoxypyridin-4-yl)cyclohexyl)propyl)-6-methoxynicotinamide] | 900 nM | – |
| CCC(NC(=O)c1cnc(OC)nc1)[C@H]1CC[C@@H](c2ccnc(OC)c2C(F)F)CC1 (single isomer, unassigned) [Example 25b, N-(1-((1s,4s)-4-(3-(Difluoromethyl)-2-methoxypyridin-4-yl)cyclohexyl)propyl)-2-methoxypyrimidine-5-carboxamide] | 10 nM | – |
| CCC(NC(=O)c1ccnc(N2CCOCC2)c1)C1CCC(c2ccnc(OC)c2C(F)F)CC1 (single isomer, unassigned) [Example 26a, N-(1-((1s,4s)-4-(3-(Difluoromethyl)-2-methoxypyridin-4-yl)cyclohexyl)propyl)-2-morpholinoisonicotinamide] | – | > 100 nM |
| CCC(NC(=O)c1ccnc(N2CCOCC2)c1)C1CCC(c2ccnc(OC)c2C(F)F)CC1 (single isomer, unassigned) [Example 26b, N-(1-((1s,4s)-4-(3-(Difluoromethyl)-2-methoxypyridin-4-yl)cyclohexyl)propyl)-2-morpholinoisonicotinamide] | 10 nM | – |
| CCC(NC(=O)c1ccc(OC)nc1)C1CCC(c2ccnc(F)c2C)CC1 (single isomer, unassigned) [Example 27a, N-(1-((1s,4s)-4-(2-Fluoro-3-methylpyridin-4-yl)cyclohexyl)propyl)-6-methoxynicotinamide] | 490 nM | – |
| CCC(NC(=O)c1ccc(OC)nc1)C1CCC(c2ccnc(F)c2C)CC1 (single isomer, unassigned) [Example 27b, N-(1-((1s,4s)-4-(2-Fluoro-3-methylpyridin-4-yl)cyclohexyl)propyl)-6-methoxynicotinamide] | – | < 10 nM |
| CCC(NC(=O)c1ccc(OC)nc1)C1CCC(c2ccnc(OC)c2C)CC1 (single isomer, unassigned) [Example 28a, 6-Methoxy-N-(1-((1s,4s)-4-(2-methoxy-3-methylpyridin-4-yl)cyclohexyl)propyl)nicotinamide] | 540 nM | – |
| CCC(NC(=O)c1ccc(OC)nc1)C1CCC(c2ccnc(OC)c2C)CC1 (single isomer, unassigned) [Example 28b, 6-Methoxy-N-(1-((1s,4s)-4-(2-methoxy-3-methylpyridin-4-yl)cyclohexyl)propyl)nicotinamide] | – | < 10 nM |

Continued, values first:

| IC50 [1] | IC50 [2] | SMILES |
| --- | --- | --- |
| 10 nM | – | CCC(NC(=O)c1ccc(N)nc1)[C@H]1CC[C@@H](c2ccnc(OC)c2C)CC1 (single isomer, unassigned) [Example 29b, 6-Amino-N-(1-((1s,4s)-4-(2-methoxy-3-methylpyridin-4-yl)cyclohexyl)propyl)nicotinamide] |
| 20 nM | – | CCC(NC(=O)c1ccc(OC)nc1)C1CCC(c2ccnc(OC(F)F)c2)CC1 (single isomer, unassigned) [Example 30b, N-(1-(4-(2-(Difluoromethoxy)pyridin-4-yl)cyclohexyl)propyl)-6-methoxynicotinamide] |
| 250 nM | – | CCC(NC(=O)c1ccc(OC)nc1)C1CCC(c2ccnc(OC(F)F)c2)CC1 (single isomer, unassigned) [Example 30d, N-(1-(4-(2-(Difluoromethoxy)pyridin-4-yl)cyclohexyl)propyl)-6-methoxynicotinamide] |
| – | > 100 nM | CC[C@@H](NC(=O)c1ccc(OC)nc1)[C@H]1CC[C@@H](c2ccn(C)c(=O)c2)CC1 (single isomer, unassigned) [Example 31a, 6-Methoxy-N-(1-(4-(1-methyl-2-oxo-1,2-dihydropyridin-4-yl)cyclohexyl)propyl)nicotinamide] |
| 970 nM | – | CC[C@@H](NC(=O)c1ccc(OC)nc1)[C@H]1CC[C@@H](c2ccn(C)c(=O)c2)CC1 (single isomer, unassigned) [Example 31b, 6-Methoxy-N-(1-(4-(1-methyl-2-oxo-1,2-dihydropyridin-4-yl)cyclohexyl)propyl)nicotinamide] |
| 190 nM | – | CC[C@@H](NC(=O)c1ccc(OC)nc1)[C@H]1CC[C@@H](c2ccn(C)c(=O)c2)CC1 (single isomer, unassigned) [Example 31c, 6-Methoxy-N-(1-(4-(1-methyl-2-oxo-1,2-dihydropyridin-4-yl)cyclohexyl)propyl)nicotinamide] |
| – | > 100 nM | CC[C@@H](NC(=O)c1ccc(OC)nc1)[C@H]1CC[C@@H](c2ccn(C)c(=O)c2)CC1 (single isomer, unassigned) [Example 31d, 6-Methoxy-N-(1-(4-(1-methyl-2-oxo-1,2-dihydropyridin-4-yl)cyclohexyl)propyl)nicotinamide] |
| – | > 100 nM | CCC(NC(=O)c1ccc(OC)nc1)C1CCC(c2cccc(=O)n2C)CC1 (single isomer, unassigned) [Example 32a, 6-Methoxy-N-(1-(4-(1-methyl-6-oxo-1,6-dihydropyridin-2-yl)cyclohexyl)propyl)nicotinamide] |
| 80 nM | – | CCC(NC(=O)c1ccc(OC)nc1)C1CCC(c2cccc(=O)n2C)CC1 (single isomer, unassigned) [Example 32b, 6-Methoxy-N-(1-(4-(1-methyl-6-oxo-1,6-dihydropyridin-2-yl)cyclohexyl)propyl)nicotinamide] |
| 740 nM | – | CCC(NC(=O)c1ccc(OC)nc1)C1CCC(c2cccc(=O)n2C)CC1 (single isomer, unassigned) [Example 32c, 6-Methoxy-N-(1-(4-(1-methyl-6-oxo-1,6-dihydropyridin-2-yl)cyclohexyl)propyl)nicotinamide] |
| – | > 100 nM | CCC(NC(=O)c1ccc(OC)nc1)C1CCC(c2cccc(=O)n2C)CC1 (single isomer, unassigned) [Example 32d, 6-Methoxy-N-(1-(4-(1-methyl-6-oxo-1,6-dihydropyridin-2-yl)cyclohexyl)propyl)nicotinamide] |
| 220 nM | – | CCC(NC(=O)c1ccc(OC)nc1)[C@H]1CC[C@@H](c2cc(C)ccn2)CC1 (single isomer, unassigned) [Example 45a, (±)-6-methoxy-N-(1-(4-(4-methylpyridin-2-yl)cyclohexyl)propyl)nicotinamide] |
| 620 nM | – | CCC(NC(=O)c1ccc(OC)nc1)[C@H]1CC[C@@H](c2cc(C)ccn2)CC1 (single isomer, unassigned) [Example 45b, (±)-6-methoxy-N-(1-(4-(4-methylpyridin-2-yl)cyclohexyl)propyl)nicotinamide] |
